Data taken from US20240415804A1, “METHOD OF TREATING PANCREATIC CANCER” (University of South Florida, priority 2022, published 2024).

Key:
MiaPaCa-2 cells = assay: MTT cell viability assay, MiaPaCa-2; type: cell-based, human; details: API 40 μM, 24 h, vs DMSO vehicle
Experimental: The methyl thiazol tetrazolium (MTT) assay was performed as described previously^58. Briefly, MiaPaCa-2, Panc02 and UN-KC-6141 cells were seeded in 96-well plates at a density of 3000 cells/well and allowed to attach overnight. PC cells were then treated with API (40 μM) or DMSO (1%) as vehicle control for 24 h at 37° C. in 5% CO2 incubator. After 24 h, media was replaced with 20 μL of MTT (1 mg/mL) (Sigma-Aldrich) and incubated for 3 h at 37° C. in 5% CO2. MTT was replaced with DMSO, and absorbance was read at 570 nm.
MiaPaCa-2, Panc02 and UN-KC-6141 cells (2×10^5) were grown in 2 mL of growth medium in a 6-well tissue culture plate for 18-24 h until 60-80% confluency. The following solutions were prepared: Solution A) For each transfection, diluted 1 μL of miRNA-155 inhibitors (1 μM) (Table 2) or scrambled negative control miRNA (1 μM) (Qiagen, Germantown, MD, USA) into 50 μL Opti-MEM Transfection Medium (Invitrogen, Waltham, MA, USA). Solution B) For each transfection, diluted 3 μL of Hi-Perfect Transfection Reagent into 50 μL Opti-MEM Transfection Medium. Solution A was added directly to Solution B, mixed gently and the mixture incubated for 10-15 min at room temperature. […]

CD40 = assay: Flow cytometry of CD40 expression on M1 TAM in tumors of KC-HPC mice; type: in vivo, mouse; details: KC-HPC-API vs KC-HPC mice
Experimental: The inventors then assessed the expression of CD40 (a T cell co-stimulation marker) on M1 TAM (gated as MHC-II^+ and CD206) within the tumor from KC-HPC vs. KC-HPC-API mice. […] The femur and tibia were cut at the pelvic-hip joint and muscle was removed. The femurs and tibias were cut at the ends and flushed with a 30-gauge needle and 10 cc syringe filled with completed RPMI media until bone was white onto a petri dish. Pelleted bone marrow (BM) cells were treated with Red Blood Cell (RBC) lysis buffer (eBioscience, Waltham, MA, USA), according to the manufacturer's instructions, and then filtered through a […] nylon mesh cell strainer in 1×PBS. All pancreatic tumors were manually cut into ˜1-2 mm^3 fragments with a sterile razor blade and then enzymatically digested with Collagenase, type IV (Sigma-Aldrich), DNase, type IV (Sigma-Aldrich) and Hyaluronidase, Type V (Sigma-Aldrich) in Hank's Balanced Salt Solution for 1 h, spun down and washed as described in previous studies^61. Digested pancreatic tumor samples were treated with RBC lysis buffer and then filtered through a […] nylon mesh cell strainer in 1×PBS. Bone marrow and digested pancreatic tumor single cell suspensions were counted with a hemocytometer and then resuspended in 3% FBS/PBS. […]

Panc02 cells = assay: Apoptosis by flow cytometry (Annexin V and PI), Panc02; type: cell-based, mouse; details: API 10, 20, 30, 40, 50 μM, 24 h
Experimental: Panc02 and UN-KC-6141 cells were seeded in 6-well plates allowed to grow to 50-60% confluency. Cells were then treated with API at a dose-dependent concentration (10, 20, 30, 40, 50 μM) or DMSO (1%) as vehicle control and incubated for 24 h at 37° C. in a humidified atmosphere of 5% CO2. Cells were collected and stained with a FITC Annexin V Apoptosis Detection Kit I (BD Bioscience, San Jose, CA, USA) according to the manufacturer's instructions. Acquisition of samples was performed using a flow cytometer BD LSRII (BD Biosciences Immunocytometry Systems, San Jose, CA, USA). FlowJo v10.8 software (TreeStar Inc., Ashland, OR, USA) was used for data analysis.

O=c1cc(-c2ccc(O)cc2)oc2cc(O)cc(O)c12 [API, 40,5,7-Trihydroxyflavone, 5,7-Dihydroxy-2-(4-hydroxyphenyl)-4-benzopyrone]
cell viability (MTT) (MiaPaCa-2 cells): significantly inhibited
CD40 expression on M1 TAM in tumor (CD40): significantly upregulated
apoptosis (Annexin V and PI) (Panc02 cells): induces apoptosis
